Test: xn = mol fraction of the nth substance listed
Conditions: 100 kPa, Liquid; for viscosity: Concentric cylinders viscometry; for mass density: Vibrating tube method

c1ccncc1 [pyridine] + CCC(C)=O
Conditions	mass density [kg/m3]	viscosity [mPa·s]
288.15 K, x1 = 0.1006	827.262	0.4555
288.15 K, x1 = 0.2019	844.704	0.4928
288.15 K, x1 = 0.3002	861.833	0.5309
288.15 K, x1 = 0.4004	879.307	0.5771
288.15 K, x1 = 0.4999	896.875	0.629
288.15 K, x1 = 0.597	914.2	0.6859
288.15 K, x1 = 0.6998	932.635	0.7603
288.15 K, x1 = 0.7945	949.796	0.8375
288.15 K, x1 = 0.8962	968.632	0.9269
288.15 K, x1 = 1	988.077	1.053
293.15 K, x1 = 0.1006	822.086	0.4381
293.15 K, x1 = 0.2019	839.557	0.4718
293.15 K, x1 = 0.3002	856.714	0.5088
293.15 K, x1 = 0.4004	874.211	0.5501
293.15 K, x1 = 0.4999	891.802	0.5983
293.15 K, x1 = 0.597	909.146	0.6505
293.15 K, x1 = 0.6998	927.59	0.7177
293.15 K, x1 = 0.7945	944.768	0.7876
293.15 K, x1 = 0.8962	963.61	0.8683
293.15 K, x1 = 1	983.053	0.9801
298.15 K, x1 = 0.1006	816.889	0.4203
298.15 K, x1 = 0.2019	834.388	0.4516
298.15 K, x1 = 0.3002	851.571	0.4867
298.15 K, x1 = 0.4004	869.094	0.5243
298.15 K, x1 = 0.4999	886.708	0.5689
298.15 K, x1 = 0.597	904.074	0.6164
298.15 K, x1 = 0.6998	922.541	0.6779
298.15 K, x1 = 0.7945	939.726	0.7418
298.15 K, x1 = 0.8962	958.58	0.8147
298.15 K, x1 = 1	978.02	0.9155
303.15 K, x1 = 0.1006	811.664	0.4019
303.15 K, x1 = 0.2019	829.195	0.4317
303.15 K, x1 = 0.3002	846.407	0.4649
303.15 K, x1 = 0.4004	863.96	0.5
303.15 K, x1 = 0.4999	881.597	0.5409
303.15 K, x1 = 0.597	898.986	0.5851
303.15 K, x1 = 0.6998	917.474	0.6402
303.15 K, x1 = 0.7945	934.676	0.6995
303.15 K, x1 = 0.8962	953.536	0.7669
303.15 K, x1 = 1	972.979	0.8568
308.15 K, x1 = 0.1006	806.406	0.3835
308.15 K, x1 = 0.2019	823.972	0.4117
308.15 K, x1 = 0.3002	841.216	0.4432
308.15 K, x1 = 0.4004	858.797	0.4758
308.15 K, x1 = 0.4999	876.465	0.5142
308.15 K, x1 = 0.597	893.873	0.555
308.15 K, x1 = 0.6998	912.381	0.6063
308.15 K, x1 = 0.7945	929.606	0.6588
308.15 K, x1 = 0.8962	948.477	0.7219
308.15 K, x1 = 1	967.923	0.8032
313.15 K, x1 = 0.1006	801.119	0.3653
313.15 K, x1 = 0.2019	818.72	0.392
313.15 K, x1 = 0.3002	835.996	0.4219
313.15 K, x1 = 0.4004	853.612	0.4528
313.15 K, x1 = 0.4999	871.309	0.4887
313.15 K, x1 = 0.597	888.742	0.5265
313.15 K, x1 = 0.6998	907.282	0.5741
313.15 K, x1 = 0.7945	924.517	0.6226
313.15 K, x1 = 0.8962	943.403	0.6809
313.15 K, x1 = 1	962.857	0.7546
318.15 K, x1 = 0.1006	795.798	0.3502
318.15 K, x1 = 0.2019	813.436	0.3728
318.15 K, x1 = 0.3002	830.749	0.401
318.15 K, x1 = 0.4004	848.397	0.4308
318.15 K, x1 = 0.4999	866.128	0.4642
318.15 K, x1 = 0.597	883.587	0.4996
318.15 K, x1 = 0.6998	902.151	0.544
318.15 K, x1 = 0.7945	919.408	0.5893
318.15 K, x1 = 0.8962	938.312	0.6417
318.15 K, x1 = 1	957.777	0.7103
323.15 K, x1 = 0.1006	790.436	0.3328
323.15 K, x1 = 0.2019	808.12	0.3539
323.15 K, x1 = 0.3002	825.467	0.3807
323.15 K, x1 = 0.4004	843.151	0.4095
323.15 K, x1 = 0.4999	860.918	0.4409
323.15 K, x1 = 0.597	878.406	0.4742
323.15 K, x1 = 0.6998	896.999	0.5159
323.15 K, x1 = 0.7945	914.28	0.5586
323.15 K, x1 = 0.8962	933.202	0.6072
323.15 K, x1 = 1	952.682	0.6698
328.15 K, x1 = 0.1006	785.039	0.3157
328.15 K, x1 = 0.2019	802.762	0.3354
328.15 K, x1 = 0.3002	820.152	0.361
328.15 K, x1 = 0.4004	837.875	0.3888
328.15 K, x1 = 0.4999	855.68	0.4185
328.15 K, x1 = 0.597	873.198	0.4502
328.15 K, x1 = 0.6998	891.821	0.4899
328.15 K, x1 = 0.7945	909.127	0.5297
328.15 K, x1 = 0.8962	928.07	0.5771
328.15 K, x1 = 1	947.564	0.6329
333.15 K, x1 = 0.1006	779.596	0.2989
333.15 K, x1 = 0.2019	797.367	0.3189
333.15 K, x1 = 0.3002	814.798	0.3422
333.15 K, x1 = 0.4004	832.563	0.3696
333.15 K, x1 = 0.4999	850.405	0.3985
333.15 K, x1 = 0.597	867.959	0.4291
333.15 K, x1 = 0.6998	886.618	0.4668
333.15 K, x1 = 0.7945	903.947	0.5039
333.15 K, x1 = 0.8962	922.92	0.549
333.15 K, x1 = 1	942.433	0.5997

From the NIST ThermoML archive (doi:10.1016/j.fluid.2016.02.031)
